≈ marks a conversion by molar mass, not a printed value.
Legend:
wild type strain W3110 = experiment: microbe, parasite or virus in culture; type: cell-based, E. coli; conditions: Escherichia coli, W3110, 16 h
PhoU mutant (JHU-313) = experiment: MIC/MBC by serial two-fold dilutions in LB broth; type: cell-based, E. coli; conditions: Escherichia coli, 16 h at 37° C.
JHU-313 containing pPhoU [1] = experiment: MIC/MBC by serial two-fold dilutions in LB broth; type: cell-based, E. coli; conditions: Escherichia coli, 16 h at 37° C.
[2] = test system: JHU-313 containing pVector; experiment: MIC/MBC by serial two-fold dilutions in LB broth; type: cell-based, E. coli; conditions: Escherichia coli, 16 h at 37° C.
W3110 = experiment: microbe, parasite or virus in culture; conditions: Escherichia coli, read-out: zone inhibition
JHU-313 = experiment: Kirby-Bauer paper disc assay, zone inhibition; conditions: Escherichia coli, read-out: zone inhibition
JHU-313 containing pPhoU [3] = experiment: Kirby-Bauer paper disc assay, zone inhibition; conditions: Escherichia coli, read-out: zone inhibition
[4] = test system: JHU-313 containing pVector; experiment: Kirby-Bauer paper disc assay, zone inhibition; conditions: Escherichia coli, read-out: zone inhibition
PhoU = molecular target: T1, PhoU (Escherichia coli, UniProt P0A9K7); experiment: PhoU phosphatase substrate specificity; type: biochemical, E. coli; conditions: pH5, pH7 and pH8
T1 construct: His; made in house
Description: Different substrates for the PhoU phosphatase activity were tested. […] For PhoU, the substrates acetyl-P, carbamoyl-P, imido-di phosphate (imido-di-P), r-nitrophenyl phosphate (rNPP), β-Nicotinamide adenine dinucleotide phosphate (NADP), Glucose-1,6-bisphosphate (Glucose-1,6-bisP) were tested at pH5, pH7, and pH8 condition, as potential PhoU phosphatase activity.

T1 sequence (P0A9K7 whole entry): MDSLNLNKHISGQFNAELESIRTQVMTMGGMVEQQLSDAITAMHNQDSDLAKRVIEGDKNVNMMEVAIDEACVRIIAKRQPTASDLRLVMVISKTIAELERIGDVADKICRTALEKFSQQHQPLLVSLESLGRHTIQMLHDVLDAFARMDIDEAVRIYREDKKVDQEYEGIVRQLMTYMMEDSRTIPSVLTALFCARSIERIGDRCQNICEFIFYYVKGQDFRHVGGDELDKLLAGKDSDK

Which results are given for `COc1cc(Cc2cnc(N)nc2N)cc(OC)c1OC` [Trimethoprim, trimethoprim]?
MBC (wild type strain W3110): 8 µg/mL (≈ 27.6 µM); MIC (wild type strain W3110): 2 µg/mL (≈ 6.89 µM); MBC (PhoU mutant (JHU-313); read-out: MBC): 1 µg/mL (≈ 3.44 µM); MIC (PhoU mutant (JHU-313); read-out: MIC): 0.25 µg/mL (≈ 0.861 µM); MBC (JHU-313 containing pPhoU [1]; read-out: MBC): 4 µg/mL (≈ 13.8 µM); MIC (JHU-313 containing pPhoU [1]; read-out: MIC): 2 µg/mL (≈ 6.89 µM); MBC ([2]; read-out: MBC): 1 µg/mL (≈ 3.44 µM); MIC ([2]; read-out: MIC): 0.5 µg/mL (≈ 1.72 µM); zone of inhibition at 0.5 µg/mL (W3110): 24 mm; zone of inhibition at 1 µg/mL (W3110): 26 mm; zone of inhibition at 2 µg/mL (W3110): 30 mm; zone of inhibition at 0.5 µg/mL (JHU-313): 31 mm; zone of inhibition at 1 µg/mL (JHU-313): 38 mm; zone of inhibition at 2 µg/mL (JHU-313): 42 mm; zone of inhibition at 0.5 µg/mL (JHU-313 containing pPhoU [3]): 32 mm; zone of inhibition at 1 µg/mL (JHU-313 containing pPhoU [3]): 33 mm; zone of inhibition at 2 µg/mL (JHU-313 containing pPhoU [3]): 36 mm; zone of inhibition at 0.5 µg/mL [4]: 36 mm; zone of inhibition at 1 µg/mL [4]: 40 mm; zone of inhibition at 2 µg/mL [4]: 44 mm

How did the “rank as PhoU phosphatase substrate” value (PhoU) turn out when `CC(=O)OP(=O)(O)O` [acetyl-P, acetyl phosphate] was run?
Its value is “acetyl-P>rNPP>carbamoyl-P>Glucose-1,6-bisP>NADP”.

For `NC(=O)OP(=O)(O)O` [carbamoyl-P, carbamoyl phosphate], which “rank as PhoU phosphatase substrate” value (PhoU) is on record?
Its value is “acetyl-P>rNPP>carbamoyl-P>Glucose-1,6-bisP>NADP”.

For `O=[N+]([O-])c1ccc(OP(=O)(O)O)cc1` [rNPP, r-nitrophenyl phosphate], which “rank as PhoU phosphatase substrate” value (PhoU) is on record?
Its value is “acetyl-P>rNPP>carbamoyl-P>Glucose-1,6-bisP>NADP”.

For “β-Nicotinamide adenine dinucleotide phosphate [NADP]”, which “rank as PhoU phosphatase substrate” value (PhoU) is on record?
The value was “acetyl-P>rNPP>carbamoyl-P>Glucose-1,6-bisP>NADP”.

Source: US20100210602A1, “PhoU (PerF), A P[…] INVOLVED IN [sequence] FORMATION AND TOLERANCE TO MULTIPLE ANTIBIOTICS AND [sequence] AS A DRUG TARGET FOR [sequence] BACTERIA” (priority 2006, published 2010)
